Measured values taken from patent publication US11898210B2, “Tools for assessing FimH blockers therapeutic efficiency” (ENTEROME, priority 2017, dated 2024).

Columns and labels:
[1] = test system: bacterial morphotypes isolated from biopsies of CD patients; test: Aggregation to EB8018 of bacterial morphotypes isolated from MOBIDIC ileal biopsies; assay type: cell-based; settings: 106 CD patients with conclusive biopsy results; 10 nM/100 nM/1 μM EB8018
Experimental: Mucosal specimens, isolated from CD patients have been collected from the MOBIDIC study. For each patient, 4 biopsies were collected, 2 or 3 for further investigations and 1 or 2 as back-up sample stored at Cell&Co (Clermont-Ferrand, France). The ileal specimens were introduced immediately into preweighed vials containing 1.8 mL of refrigerated DMEM with 15% glycerol. The vials were weighed to establish the weight of sample. Ideally, the size of the biopsies must be between 5 and 10 mg. After being frozen at −80° C., vials were sent to Cell&Co and stored at −80° C. upon receipt.
On day 1, biopsies were processed to retrieve adherent bacteria (extract A) and invasive bacteria (extract I). […]
Extracts A and I were cultivated in LB broth for 2×24 hours and on day 3, the LB overnight cultures were used for aggregation assays with EB8018 compound. […] Every hour, bacterial growth was measured and a picture of each well was taken using a SPARK10M. After 5 hours, the microplate was shacked and 10 min after, a picture was taken for aggregation assessment (aggregation was evaluated by a technician with comparison with DMSO). […]
When no aggregation was observed on extracts or in case of inconclusive evaluation (for example with observation of aggregation with the DMSO without any compound), a second biopsy was analysed following the same protocol. […]

[2] = test system: LF82; test: Aggregation assay with EB8018 on positive control strain LF82; assay type: cell-based, Escherichia coli
Experimental: (§1) Three days before aggregation assays, bacterial strains were defrosted on TSA (Tryptone Soya Agar) plates. A first overnight culture was performed by inoculation of 3 mL of LB broth with a single colony of bacteria followed by a second overnight culture (1 mL of the first culture+4 mL LB broth).
(§2) Six concentrations of EB8018 (sample SP-0010269-017 produced by China Gateway) were tested in the aggregation assays (1 nM/10 nM/100 nM/1 μM/10 μM and 100 μM), 500× working solutions were prepared in pure DMSO by 10-fold serial dilutions from a 100 mM stock solution (65 mg EB8018+1 mL DMSO; MEB8018:649.68 g/mol). The 500× working solutions (1 μM, 10 μM, 100 μM, 1 mM, 10 mM and 100 mM) were split into aliquots and stored at −20° C., until use.
On the day of the test, an aliquot of each EB8018 500× working solution (1 μM, 10 μM, 100 μM, 1 mM, 10 mM and 100 mM) was defrosted and diluted twice in LB medium (1:20 for the first dilution and 1:25 for the second dilution) to obtain respectively six 2× working solutions (2 nM, 20 nM, 200 nM, 2 μM, 20 μM and 200 μM). The second overnight bacterial cultures were diluted in LB medium (50-fold dilution). Fifty μL of these bacteria dilutions were dispensed into 96-well plates (8 wells/strain). Fifty μL of the EB8018 2× working solutions or fresh LB or LB with 0.2% DMSO were added to the wells. Microplates were incubated for 5 hours at 37° C. under constant shaking (200 rpm). Every hour, each well was observed and the starting time of aggregation was recorded. After 5 hours of incubation, a picture was taken only in wells where an aggregation was observed. For each concentration and each time point, aggregation was evaluated by a technician.
This protocol was applied to the 113 isolated bacterial strains. On each plate, a positive control (LF82) and a negative control (LF82-ΔFimH) were used.

[3] = test system: LF82-ΔFimH; test: Aggregation assay with EB8018 on negative control strain LF82-ΔFimH; assay type: cell-based, Escherichia coli; settings: whatever the concentration tested and whatever the time of incubation
Experimental: as §1, §2
(§3) On the day of the test, an aliquot of each EB8018 500× working solution (1 μM, 10 μM, 100 μM, 1 mM, 10 mM and 100 mM) was defrosted and diluted twice in LB medium (1:20 for the first dilution and 1:25 for the second dilution) to obtain respectively six 2× working solutions (2 nM, 20 nM, 200 nM, 2 μM, 20 μM and 200 μM). The second overnight bacterial cultures were diluted in LB medium (50-fold dilution). […] Every hour, each well was observed and the starting time of aggregation was recorded. […] For each concentration and each time point, aggregation was evaluated by a technician. […]

[4] = test system: isolated E. coli strains; test: Aggregation assay with EB8018 on the collection of isolated bacterial strains; assay type: cell-based, Escherichia coli
Description: 110 E. coli strains from La Girona University (Margarita Medina-Martinez Lab-Girona-Spain) and Cornell (Kenneth Simpson Lab—Ithaca—USA) have been made available through MTA. These isolated strains had been previously extracted from the stool or ileal/colonic biopsies of IBD patients or controls and had been characterised for their AIEC phenotype (for Cornell strains see Dogan B. et al., 2014; Baumgart M. et al., 2007, summarized in the Appendix). Those 110 strains have been sent to SMALTIS (Besangon, France) who is in charge of all laboratory work. An additional 3 non E. coli strains have been ordered as well as LF82 and LF82 deltaFimH that serve as respectively positive and negative controls.
as §1, §2, §3

[5] = test system: cystitis murine model; settings: Wellens et al., 2008; cited from earlier work
[6] = test system: AIEC; settings: CEABAC 10 Crohn's disease model; Sivignon 2015; cited from earlier work
[7] = test system: AIEC; settings: Bouckaert et al., 2005, 2013; cited from earlier work

## CC(=O)N1CCC2(CC1)c1cc(C#C[C@H]3O[C@H](CO)[C@@H](O)[C@H](O)[C@@H]3O)ccc1-c1ccc(C#C[C@H]3O[C@H](CO)[C@@H](O)[C@H](O)[C@@H]3O)cc12 [EB8018, 1-(2,7-bis(((2R,3S,4R,5S,6R)-3,4,5-trihydroxy-6-(hydroxylmethyl)tetrahydro-2H-pyran-2-yl)ethynyl)spiro[fluorene-9,4′-piperidin]-1′-yl)ethan-1-one]
[1]
  share of patients with at least one morphotype that aggregated: 65%
  share of patients with no aggregation: 15%
[2]; LF82, 1 nM EB8018, after 5 h of incubation
  level of aggregation: strong aggregation
[2]; LF82, 10 nM EB8018, after 5 h of incubation
  level of aggregation: strong aggregation
[2]; LF82, 100 nM EB8018, after 5 h of incubation
  level of aggregation: strong aggregation
[2]; LF82, 1 μM EB8018, after 5 h of incubation
  level of aggregation: moderate aggregation
[2]; LF82 positive control, incubation at 37° C.
  starting time of aggregation: 2 h
[3]
  aggregation: did not aggregate
[4]; 6 concentrations, every hour for 5 hours
  share of analyzable strains classified on the grey zone (low aggregation): 13%
[4]; all results negative across 6 concentrations and 5 hours
  share of analyzable strains that did not aggregate: 44%
[4]; at least one + or +/− across 6 concentrations and 5 hours
  share of analyzable strains that did aggregate: 42%

## CCCCCCCO[C@H]1O[C@H](CO)[C@@H](O)[C@H](O)[C@@H]1O [Heptylmannose]
[5]
  concentration required for a significant bacterial load reduction: millimolar concentrations are required
[6]
  effect with AIEC: no effect
[7]
  in vitro AIEC adhesion inhibition: potent
